Experimental findings from publication PMC10139035, “Carborane-Containing Hydroxamate MMP Ligands for the Treatment of Tumors Using Boron Neutron Capture Therapy (BNCT): Efficacy without Tumor Cell Entry” (International Journal of Molecular Sciences, 2023) are described below.

One may read the IC50 as the midpoint of a concentration-inhibition curve.

For data set [1], the system named is U87 delta EGFR glioma cells. The experiment in a line: In vitro BNCT survival study, colony formation assay. The format is cell-based. The following applies: for Survival rate: 20 ppm of 10B in BPA; for Thermal neutron fluence yielding the D37 value: BPA 20 ppm 10B. As to the method:
SCC VII tumor cells were incubated and stabilized in a logarithmic subconfluent growth phase at 36 °C in a 5% carbon dioxide atmosphere in a 10 cm diameter tissue culture dishes (100 mm tissue culture dishes; Corning Glass Works, Corning, NY, USA) containing Eagle’s MEM containing 10% heat-inactivated fetal bovine serum and 2 mM L-glutamine. The U87 delta EGFR glioma cell line, kindly provided by Dr. H. Michiue (Okayama University, Okayama, Japan), which stably expressed the constitutively active EGFRvIII, was used in the colony formation assay. The cells were maintained in Dulbecco’s modified Eagle’s medium (DMEM; FUJIFILM Wako Pure Chemical Corporation, Richmond, VA, USA with 10% fetal bovine serum (FBS), penicillin, and streptomycin at 37 °C in a humidified atmosphere containing 5% CO2. The stock solutions of B1 and B2 were obtained by dissolving 6 mg of them in 1 ml DMSO, respectively. For SCC VII cells, after adding 100 μL of a boron solution, the cells were incubated for boron loading into tumor cells for 5 h. […] The ^10B (0.143 ppm ^10B for 1 (B1) and 0.101 ppm for 2 (B2) in the medium was reconfirmed by PGS (prompt γ spectroscopy) in the SCC VII colony forming assay. After boron loading, the cells were trypsinized and washed three times by PBS, and 5 × 10^3 cells/mL MEM (FCS+) were irradiated with thermal neutrons in column-shaped Teflon tubes (1 × 3 cm). […] The irradiation times were 0, 15, 30 and 45 min. The thermal neutrons flux was 1.8 × 10^9 cm^−2·s^−1. The thermal neutron fluence was determined by averaging two gold foils symmetrically attached to the surface of the Teflon tube along the direction of the incidence of the thermal neutrons. The neutron absorbed dose (Gy) was calculated using the flux-to-dose conversion factor [61]. The chemical composition of the tumors was assumed to be 10.7% hydrogen, 12.1% carbon, 2% nitrogen, 71.4% oxygen, and 3.8% others. The γ-ray dose rate, including secondary γ-rays, was 1.0 × 10^−2 Gy·min^−1, according to a thermoluminescence dosimeter attached to the surface of a Teflon tube containing 1 mL MEM. After thermal neutron exposure, 300 or 900 cells were placed in three Corning 60 mm tissue culture dishes containing 6 mL MEM to examine colony formation. Ten days later, the colonies were fixed with 70% ethanol and stained with 5% Giemsa solution for quantitative visualization by the naked eye.

In data set [2] the test system is SCC VII tumor cells. The experiment in a line: Cytotoxicity: IC50, growth inhibition after 3 days of continuous exposure. The format is cell-based. To be noted: 3 days continuous exposure, read-out: IC50 (cell toxicity). As to the method: Suspensions of 105 SCC VII cells/200 μL MEM containing 10% FCS (fetal calf serum) were incubated for 3 days in 96-well microplate with various concentrations of 1 and 2 (B1 and B2). After 3 days of exposure, the cell were washed with PBS and fixed with 70% ethanol. The SCC VII cells were stained with 5% Giemsa solution for 15 min. After removing the solution, the cells were dried in air and Giemsa stained cells were uniformized by the addition of 100 μL of alcohol. The optical absorbance at 595 nm was measured by optical densitometer.

Data set [3] relates to SCC VII tumor cells. Kind of data set: In vitro BNCT survival study, colony formation assay. The format is cell-based. As to the method: SCC VII tumor cells were incubated and stabilized in a logarithmic subconfluent growth phase at 36 °C in a 5% carbon dioxide atmosphere in a 10 cm diameter tissue culture dishes (100 mm tissue culture dishes; Corning Glass Works, Corning, NY, USA) containing Eagle’s MEM containing 10% heat-inactivated fetal bovine serum and 2 mM L-glutamine. The U87 delta EGFR glioma cell line, kindly provided by Dr. H. Michiue (Okayama University, Okayama, Japan), which stably expressed the constitutively active EGFRvIII, was used in the colony formation assay. […] The thermal neutron fluence was determined by averaging two gold foils symmetrically attached to the surface of the Teflon tube along the direction of the incidence of the thermal neutrons. The neutron absorbed dose (Gy) was calculated using the flux-to-dose conversion factor [61]. […] Ten days later, the colonies were fixed with 70% ethanol and stained with 5% Giemsa solution for quantitative visualization by the naked eye.

The target in another data set is MMP-9 (Homo sapiens, UniProt P14780). The experiment in a line: MMP-9 fluorometric inhibitor screening kit assay. The following applies: read-out: IC50 MMP-9; triplicate, S.D.
In the next data set the target is T1, MMP-2 (Homo sapiens, UniProt P08253).
T1 sequence (P08253 110-660): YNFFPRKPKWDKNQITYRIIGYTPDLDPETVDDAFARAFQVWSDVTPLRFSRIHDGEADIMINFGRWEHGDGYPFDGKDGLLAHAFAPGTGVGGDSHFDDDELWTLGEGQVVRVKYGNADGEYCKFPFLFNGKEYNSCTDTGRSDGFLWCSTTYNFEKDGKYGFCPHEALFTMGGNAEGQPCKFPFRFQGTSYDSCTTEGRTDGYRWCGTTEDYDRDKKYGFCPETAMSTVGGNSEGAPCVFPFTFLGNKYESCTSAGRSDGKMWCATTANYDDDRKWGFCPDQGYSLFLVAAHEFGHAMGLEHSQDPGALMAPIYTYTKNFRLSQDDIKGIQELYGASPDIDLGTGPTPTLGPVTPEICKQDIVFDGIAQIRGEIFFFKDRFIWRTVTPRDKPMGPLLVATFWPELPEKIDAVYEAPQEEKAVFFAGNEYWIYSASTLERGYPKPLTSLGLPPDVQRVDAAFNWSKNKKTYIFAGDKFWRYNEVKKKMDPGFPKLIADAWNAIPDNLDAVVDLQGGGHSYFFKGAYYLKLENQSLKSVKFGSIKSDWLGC
Kind of data set: MMP-2 fluorometric inhibitor screening kit assay. To be noted: read-out: IC50 MMP-2; triplicate, S.D.

Chain of MMP-9 (P14780 94-707): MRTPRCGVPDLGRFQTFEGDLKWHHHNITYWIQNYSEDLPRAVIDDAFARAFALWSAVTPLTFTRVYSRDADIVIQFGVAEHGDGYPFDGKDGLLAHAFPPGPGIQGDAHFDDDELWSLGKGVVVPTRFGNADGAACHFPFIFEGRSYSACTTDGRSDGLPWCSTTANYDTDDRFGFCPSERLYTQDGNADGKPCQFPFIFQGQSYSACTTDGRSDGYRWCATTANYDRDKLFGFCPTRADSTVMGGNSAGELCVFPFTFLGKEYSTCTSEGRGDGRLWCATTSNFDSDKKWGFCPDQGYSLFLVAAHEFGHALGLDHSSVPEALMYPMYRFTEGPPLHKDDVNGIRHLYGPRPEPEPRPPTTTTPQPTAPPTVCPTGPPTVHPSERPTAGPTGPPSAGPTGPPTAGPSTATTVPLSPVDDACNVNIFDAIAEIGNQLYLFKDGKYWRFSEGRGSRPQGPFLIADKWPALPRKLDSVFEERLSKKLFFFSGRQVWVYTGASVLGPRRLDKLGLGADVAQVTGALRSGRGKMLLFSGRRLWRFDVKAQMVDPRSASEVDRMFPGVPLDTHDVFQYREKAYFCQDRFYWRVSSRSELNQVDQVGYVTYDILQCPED
Protocol for MMP-2: (§1) MMP-2, MMP-9, and MMP-13 were assayed for inhibition using the respective abcam: ab139447, ab139449, and ab139451 Inhibitor Screening Kits. The supplied kits were adaptable to a microplate reader protocol designed for observing a fluorometric change associated with the cleavage of substrate analog at 37 °C. Briefly, each assay or control included a combined volume of 100 µL. […] The enzymes were then diluted in the assay buffer and 20 µL of each was added to give an assay concentrations of 0.042 nM (MMP-2), 1.9 nM (MMP-9), and 1.86 nM (MMP-13). […] The reaction was excited at 328 nm and emission detected at 420 nm. Fluorescence was measured every 60 s for a total of 960 s.
(§2) For each assay, data were truncated at 1000 s and offsets were applied to bring the initial fluorescence of each assay to zero. Replicate data for assays of individual inhibitor concentrations were plotted in KaleidaGraph (Synergy Software) for comparison and obvious outliers were culled from the analysis. The remaining data were averaged to yield one trace for each inhibitor concentration. The average data were combined into a dataset that included all assayed inhibitor concentrations for each MMP paralog. […]
(§3) The error was calculated by propagating the error for ratios of rate constants derived from fitting.
Protocol for MMP-9: as §1, §2, §3

As to `N[C@@H](Cc1ccc(B(O)O)cc1)C(=O)O` [BPA, L-boronophenylalanine, reference compound], the Survival rate in data set [1] (thermal neutron fluence 2.7 × 10^12 cm^−2) was determined as 6.2 ± 1.4%; in data set [1] (thermal neutron fluence […] 10^12 cm^−2) it was 24.2 ± 7.7%. Moreover, the “Thermal neutron fluence yielding the D37 value” is reported as 1.2 × 10^12 in data set [1] (U87 MG delta EGFR, 4 0.48 ppm 10B (Figure 8)); 1.0 × 10^12 in data set [1] (U87 delta EGFR, 2 (B2) 0.7 ppm 10B (Figure 7)); 6.0 × 10^11 in the data set on SCC VII tumor cells [3] (SCC VII, BPA 20 ppm 10B, 4 0.48 ppm 10B (Figure 9)). Besides, the IC50 with SCC VII tumor cells [2] is 25500 µM. Moreover, the “D37 absorbed dose (dose used to inhibit 63% colony formation)” value with SCC VII tumor cells [3] (SCC VII after in vitro BNCT, pre-incubation 0.143 ppm 10B (1), 0.101 ppm 10B (2)) was determined as 0.82 Gy.

Consider `COc1ccc(S(=O)(=O)N(CC(=O)NO)CC(C)C)cc1` [NNGH, N-isobutyl-N-(4-methoxyphenylsulfonyl)glycyl hydroxamic acid, reference compound], for which the IC50 on MMP-9 was 0.0028 ± 1.4e-05 µM; on MMP-2, 0.0085 ± 0.0011 µM.
